Source: PMC4623779, “1-Octen-3-ol – the attractant that repels” (F1000Research, 2015)
Numbering of substitutions follows the chain as printed.

Tests used:
Assay type in all cases: cell-based
[1] = target: T1, CquiOR114b-1 (co-expressed with CquiOrco) (Culex quinquefasciatus, UniProt A0A3G1CJK1); assay: two-electrode voltage clamp, Xenopus oocytes, current traces; settings: agonist current, 1 to 10 µM, enantiomer not stated
T1 construct: full length, 405 residues (longer C-terminus); pGEMHE, Xenopus oocytes co-expressing CquiOrco; with Odorant receptor coreceptor
T1 sequence (A0A3G1CJK1 1-405): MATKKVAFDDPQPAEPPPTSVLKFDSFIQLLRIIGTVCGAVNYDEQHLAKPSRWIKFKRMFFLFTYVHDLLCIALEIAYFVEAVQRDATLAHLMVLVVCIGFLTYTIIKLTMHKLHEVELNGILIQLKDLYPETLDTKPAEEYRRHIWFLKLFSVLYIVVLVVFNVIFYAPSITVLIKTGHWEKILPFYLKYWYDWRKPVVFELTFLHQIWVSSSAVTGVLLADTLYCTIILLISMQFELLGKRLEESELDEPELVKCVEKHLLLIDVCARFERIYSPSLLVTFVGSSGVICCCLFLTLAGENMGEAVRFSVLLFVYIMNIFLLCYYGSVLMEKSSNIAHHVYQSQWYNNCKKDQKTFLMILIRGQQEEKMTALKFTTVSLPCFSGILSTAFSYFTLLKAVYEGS

[2] = target: T2, CquiOR114b-2 (co-expressed with CquiOrco) (Culex quinquefasciatus, UniProt A0A3G1CJJ8); assay: as above; settings: agonist current, 1 to 10 µM, enantiomer not stated
T2 construct: full length, 405 residues (longer C-terminus); pGEMHE, Xenopus oocytes co-expressing CquiOrco; with Odorant receptor coreceptor
T2 sequence (A0A3G1CJJ8 1-405): T1 sequence (A0A3G1CJK1 1-405) with L63W, G122E, D129N
From the text: two-electrode voltage clamp, Xenopus oocytes, current traces on CquiOR114b-2 (co-expressed with CquiOrco) | CquiOR114b-2 and CquiOrco (lower trace). Compounds were delivered in the following order | CquiOR114b-2 and CquiOrco (lower trace). Compounds were delivered in the following order: 1-octyn-3-ol

[3] = target: T3, CquiOR118b (co-expressed with CquiOrco) (Culex quinquefasciatus, UniProt A0A3G1CJJ7); assay: two-electrode voltage clamp, Xenopus oocytes, concentration-response; settings: agonist current, 0.01, 0.1 and 1 µM, holding -80 to -70 mV
T3 construct: full-length short version, 391 residues, shorter N-terminus than the VectorBase prediction CPIJ013954; pGEMHE, Xenopus oocytes co-expressing CquiOrco; with Odorant receptor coreceptor
T3 sequence (A0A3G1CJJ7 1-391): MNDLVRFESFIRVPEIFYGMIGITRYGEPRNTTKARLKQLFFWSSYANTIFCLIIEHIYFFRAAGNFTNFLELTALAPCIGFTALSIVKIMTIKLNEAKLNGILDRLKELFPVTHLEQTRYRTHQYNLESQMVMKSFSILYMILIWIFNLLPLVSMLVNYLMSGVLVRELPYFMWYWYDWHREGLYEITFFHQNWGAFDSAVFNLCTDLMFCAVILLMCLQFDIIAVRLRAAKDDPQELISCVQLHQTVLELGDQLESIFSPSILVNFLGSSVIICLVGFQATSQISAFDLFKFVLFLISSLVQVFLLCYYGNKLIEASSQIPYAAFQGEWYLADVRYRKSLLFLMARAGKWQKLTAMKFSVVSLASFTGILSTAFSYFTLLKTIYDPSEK

[4] = target: T1, CquiOR114b-1 (co-expressed with CquiOrco); assay: as above; settings: agonist current, 1, 10 and 100 µM, holding -80 to -70 mV

| SMILES | two-electrode voltage clamp, Xenopus oocytes, current traces [1] | two-electrode voltage clamp, Xenopus oocytes, current traces [2] | two-electrode voltage clamp, Xenopus oocytes, concentration-response [3] | two-electrode voltage clamp, Xenopus oocytes, concentration-response [4] |
| --- | --- | --- | --- | --- |
| C=CC(O)CCCCC (centres unmarked) [1-octen-3-ol] | oocytes co-expressing CquiOR114b-1 and CquiOrco (top trace) | CquiOR114b-2 and CquiOrco (lower trace). Compounds were delivered in the following order | – | – |
| C#CC(O)CCCCC (centres unmarked) [1-octyn-3-ol] | oocytes co-expressing CquiOR114b-1 and CquiOrco (top trace) | CquiOR114b-2 and CquiOrco (lower trace). Compounds were delivered in the following order: 1-octyn-3-ol | – | – |
| CCCCCC(O)CC (centres unmarked) [3-octanol] | oocytes co-expressing CquiOR114b-1 and CquiOrco (top trace) | CquiOR114b-2 and CquiOrco (lower trace). Compounds were delivered in the following order | – | – |
| C=C[C@H](O)CCCCC [(R)-1-octen-3-ol] | – | – | robust responses were elicited by ( R)-1-octen-3-ol in a dose-dependent manner | currents elicited by ( R)-1-octen-3-ol were significantly lower than those obtained with its antipode |
| C#C[C@H](O)CCCCC [(R)-1-octyn-3-ol] | – | – | CquiOR118b showed dramatic enantioselectivity towards ( R)-as compared to ( S)-1-octyn-3-ol | oocytes were challenged with enantiomers of 1-octen-3-ol, 1-octyn-3-ol, and 3-octanol |
| CCCCC[C@H](O)CC [(R)-3-octanol] | – | – | the responses to ( R)-3-octanol were relatively high | robust responses to 3-octanol, with responses to the ( R)- and ( S)-stereoisomers being almost indistinguishable |
| C=C[C@@H](O)CCCCC [(S)-1-octen-3-ol] | – | – | currents generated by its antipode, ( S)-1-octen-3-ol, were relatively very small | significantly lower than those obtained with its antipode, ( S)-1-octen-3-ol |
| C#C[C@@H](O)CCCCC [(S)-1-octyn-3-ol] | – | – | CquiOR118b showed dramatic enantioselectivity towards ( R)-as compared to ( S)-1-octyn-3-ol | showed preference for ( S)-isomers of 1-octen-3-ol and 1-octyn-3-ol |
| CCCCC[C@@H](O)CC [(S)-3-octanol] | – | – | – | robust responses to 3-octanol, with responses to the ( R)- and ( S)-stereoisomers being almost indistinguishable |
